Measured values published in paper PMC12469161, “Anti-cancer compound screening identifies Aurora Kinase A inhibition as a means to favor CRISPR/Cas9 gene correction over knock-out” (PLOS One, 2025).
Read-outs that look alike come from different tables or passages of the source.

Legend:
Hepa 1–6-eGFP cells = test: MTS cell viability and morphology, 5 days; assay type: cell-based, murine; details: for cell morphology by microscopy: 0.3 µM, after 5 days, vs untreated control
Experimental: (§1) A narrower cytotoxicity range was determined by exposing cells to 0.1–1 µM of the tested compounds. 48 hours after treatment started, cells were washed and harvested using medium and one third of the volume was transferred to a fresh 96 well plate, analogous to how cells are treated during gene editing experiments. Subsequently, cells were cultured for another 3–5 days. In the case of 5 days, one third of the cells was again transferred into a fresh 96-well plate on day 3 to allow enough space for logarithmic cell growth during the additional incubation time. Cell viability was determined by the Promega One Step MTS assay (Promega, Madison, USA) using the manufacturer’s specifications. Relative cell viability for the Hepa 1–6-eGFP cells was calculated by normalizing the compound conditions to controls treated with DMSO only or DMSO plus gene editing formulations. For the HEK293T cells, the absolute absorbance at […] was used as it was more representative of the relative cell viability between samples.
(§2) Cell morphology was assessed using the Nikon Eclipse Ti2 microscope (Nikon Europe, Amstelveen, The Netherlands). Pictures were acquired at 10x magnification with a Nikon DSLR 10 camera using the same imaging settings within each experiment set (Nikon Europe, Amstelveen, The Netherlands).

[1] = system: eGFP locus in Hepa 1–6-eGFP cells (HDR vs NHEJ); test: CRISPR gene-editing outcome (eGFP to BFP, flow cytometry) with ProDeliverIN CRISPR; assay type: cell-based, murine; details: for dosage with overall high efficacy and manageable toxicity: Hepa 1–6-eGFP
Source text: Lipid nanoparticles (LNP) carrying SpCas9, sgRNA and HDR template DNA were formulated using the components and molecular ratios described previously. 1,1′-((2-(4-(2-((2-(bis(2-hydroxydodecyl)amino)ethyl)(2-hydroxydodecyl)amino)ethyl)piperazin-1-yl)ethyl)azanediyl)bis(dodecan-2-ol) (C12-200) was acquired from CordonPharma (Plankstadt, Germany) and used as the ionizable lipid in the formulation. 1,2-dioleoyl-sn-glycero-3-phosphoethanolamine (DOPE) was acquired from Lipoid GmbH (Steinhausen, Switzerland), Cholesterol and 1,2-dimyristoyl-rac-glycero-3-methoxypolyethylene glycol-2000 (PEG-DMG) were acquired from Sigma-Aldrich, and 1,2-dioleoyl-3-trimethylammonium-propane (DOTAP) was acquired from Merck (Darmstadt, Germany). LNP were produced using microfluidic mixing with the Dolomite Microfluidics system (Dolomite Microfluidics, Royston, United Kingdom) and herring-bone micromixer chip with hydrophilic coating (Dolomite Microfluidics, catalogue number 3200401). A total flow rate of 1.5 mL/min and flow rate ratio of 2:1 were used between an aqueous outer phase containing SpCas9, sgRNA and HDR template in nuclease free water, and the lipids in 100% ethanol in the inner phase, respectively. The resulting LNP were diluted 4 times in Dulbecco’s PBS (Sigma-Aldrich). In the experiments using the Hepa 1–6 eGFP cells, ProDeliverIN CRISPR (OZ Biosciences, San Diego, USA) was used as reported previously.
(§3) Compounds were assessed in three dosages to assess the effects on gene-editing efficacy. […] Cells were incubated with these compounds for 24 hours prior to LNP addition. LNP were added to all wells at a final concentration of 20 nM SpCas9 to achieve robust genome editing. After 24 hours of co-incubation, medium was refreshed and cells were transferred to a 48 well plate for further culturing. Six days after adding compounds, cells were processed for flow cytometric analysis of the gene knock-out and gene-correction efficiencies. Briefly, a ssDNA template was used carrying two nucleotide mutations to convert the eGFP sequence to that of a blue fluorescent protein (BFP), as well as mutating the PAM sequence to ensure robust HDR. The sgRNA spacer sequence was 5’-[…]-3’, and the HDR template sequence was 5’-[…]-3’.
Flow cytometry using the BD FACS Canto II (Becton Dickinson) was used to determine cells undergoing NHEJ (eGFP and BFP negative population) and HDR (eGFP negative, BFP positive). […]
(§4) The percentage of HDR relative to total gene editing in a given cell population (hereafter named Relative HDR (% of edited cells) was calculated by dividing the absolute HDR population by the sum of gene-edited cells found in the BFP+ and eGFP- gates. Absolute HDR (% of all cells) and Absolute NHEJ (% of all cells) were analyzed where appropriate. The gating strategy is given in S1 Fig in S1 File.

[2] = system: eGFP locus in HEK293T-eGFP cells (HDR vs NHEJ); test: CRISPR gene-editing outcome (eGFP to BFP conversion, flow cytometry) with CRISPR-Cas9 LNP; assay type: cell-based; details: for preferential activation of HDR over NHEJ in hit validation: narrowed dose range, triplicate, vs LNP only; for effect on the NHEJ and HDR outcomes: validated hits, Fig 2B; for effect on relative HDR in the compound screen: up to three dosages based on IC50, single measurements
Experimental: as §3
Flow cytometry using the BD FACS Canto II (Becton Dickinson) was used to determine cells undergoing NHEJ (eGFP and BFP negative population) and HDR (eGFP negative, BFP positive). Data analysis was performed using Flowlogic (version 8.7). Graphpad PRISM (version 9.3.1) was used for statistical analysis and preparing graphs.
as §4

HEK293T-eGFP cells [3] = test: MTT cytotoxicity assay, 72 hours; assay type: cell-based; details: 72 h
Experimental: Cells were cultured for 16–24 hours under standard culturing conditions (5% CO2, 37 °C). […] All dose ranges were added in duplicate, followed by 72 hours of incubation. Cell viability was determined using a tetrazolium based metabolic activity assay. Briefly, 5 µL of 3-(4.5-dimethylthiazol-2-yl)-2,5-diphenyltetrazolium bromide (MTT) solution (5 mg/mL MTT in sterile PBS) was added per well, and the microplates were incubated for 4 hours at 37°C and 5% CO2 in a cell culture incubator. Next, 40 µL of 10% SDS/0.01 M HCl was added per well, and the microplates were incubated for 24–72 hours at 37°C and 5% CO2 in a cell culture incubator. Subsequently the absorbance at 570 nm and background absorbance at 720 nm were measured using the Spectramax i3x (Molecular Devices, San Jose, USA). Subsequently, the absorbance values at 720 nm were subtracted from the absorbance values at 570 nm, and the corresponding values were used to plot dose-response curves.
The data was normalized to the DMSO-treated cells (defined as 100% viability) and the empty controls (defined as 0% viability).

AURKA = system: AURKA; design: method as in manufacturer; details: ref manufacturer; cited from earlier work
AURKB = system: AURKB; design: method as in manufacturer; details: ref manufacturer; cited from earlier work
HEK293T-eGFP cells [4] = test: MTT cytotoxicity assay, 72 hours; assay type: cell-based; details: 0.1 µM, MTT toxicity curve (S2 Fig), two days after treatment
[5] = MTS cell viability and morphology, 5 days; assay type: cell-based, murine; details: mouse, Hepa 1–6-eGFP cells; 0.3 µM, MTS 5 days after start of treatment; read-out: relative cell viability
Experimental: as §1, §2

HEK293T cells = test: MTS time-resolved cytotoxicity and morphology; assay type: cell-based
Experimental: as §1, §2

[6] = system: primary murine hepatocytes; test: MTT cytotoxicity on primary hepatocytes; assay type: cell-based, murine (Ai9 mice); details: for IC50: Mus musculus, Hepatocyte
Experimental: Primary murine hepatocytes were harvested from Ai9 mice and cultured in 2D prior to transfection as previously reported. […] Toxicity was measured at this timepoint, and 72 hours later,. Cell viability was calculated by subtracting a medium blank from the absorption, and dividing the absorption by that of a vehicle-only control.

[7] = system: PCSK9 locus in Hepa 1–6 cells; test: PCSK9 genome editing, Sanger sequencing and TIDER; assay type: cell-based, murine; details: TIDER, 0.3 µM
Experimental: Transfection mixtures were prepared to deliver 30 nM RNP (and where applicable 60 nM HDR template DNA) respectively using the commercial ProdeliverIN CRISPR kit. Following this, the cells were incubated for an additional 48h followed by cell lysis and DNA purification using the DNeasy Blood and Tissue kit (Qiagen, Venlo, The Netherlands) using the manufacturers protocol for cell line lysis. Subsequently, PCR was done using the primer set in S1 Table using the Phusion Hotstart Dna Polymerase (Thermo Fischer Scientific) and the recommended thermocycle conditions and PCR mix by the manufacturer. PCR products were purified using the GeneJET PCR Purification Kit (Thermo Fischer Scientific) and finally prepared for Sanger sequencing performed by Macrogen (Amsterdam, The Netherlands. Data was analyzed using the TIDER software package available at http://shinyapps.datacurators.nl/tider/ using an untreated sequencing plot as control chromatogram and a dsDNA gBlock (Integrated DNA Technologies) containing the desired mutation as reference chromatogram. Total gene editing and HDR were analyzed for S7 Figure.

[8] = HEK293T-eGFP cells, 3 days of incubation, MTT, read-out: IC50

CO[C@@H](C(=O)N1Cc2n[nH]c(NC(=O)c3ccc(N4CCN(C)CC4)cc3)c2C1)c1ccccc1 [Danusertib, danusertib]
cell morphology by microscopy (Hepa 1–6-eGFP cells): not disrupted | dosage with overall high efficacy and manageable toxicity [1]: 0.3 µM

CNCc1ccc(-c2[nH]c3cc(F)cc4c3c2CCNC4=O)cc1 [Rucaparib]
preferential activation of HDR over NHEJ in hit validation [2]: strong dose-dependent preferential activation of HDR over NHEJ | effect on the NHEJ and HDR outcomes [2]: inhibited NHEJ and improved HDR | IC50 (HEK293T-eGFP cells [3]; [8]): > 10000 nM

Cc1[nH]c2ccccc2c1CCNCc1ccc(/C=C/C(=O)NO)cc1 [Panobinostat]
effect on relative HDR in the compound screen [2]: did not show the same effect | IC50 (HEK293T-eGFP cells [3]; [8]): 30.6 nM

Nc1cc(F)ccc1NC(=O)c1ccc(CNC(=O)/C=C/c2cccnc2)cc1 [Epidaza]
effect on relative HDR in the compound screen [2]: did not show an effect towards improving HDR | IC50 (HEK293T-eGFP cells [3]; [8]): > 10000 nM

O=C(/C=C/c1cccc(S(=O)(=O)Nc2ccccc2)c1)NO [Belinostat]
preferential activation of HDR over NHEJ in hit validation [2]: strong dose-dependent preferential activation of HDR over NHEJ | effect on the NHEJ and HDR outcomes [2]: increased both NHEJ and HDR | IC50 (HEK293T-eGFP cells [3]; [8]): 1100 nM

Nc1ccccc1NC(=O)c1ccc(CNC(=O)OCc2cccnc2)cc1 [Entinostat]
effect on relative HDR in the compound screen [2]: did not show the same effect | IC50 (HEK293T-eGFP cells [3]; [8]): 3560 nM

CCn1cc(-c2ccnc3[nH]c(-c4cccc(CN(C)C)c4)cc23)c(-c2ccc(NC(=O)N(C)C)cc2)n1 [GSK1070916]
effect on relative HDR in the compound screen [2]: did not show an effect toward relative HDR activation | IC50 (HEK293T-eGFP cells [3]; [8]): 1390 nM

C/C=C1\NC(=O)[C@H]2CSSCC/C=C/[C@H](CC(=O)N[C@H](C(C)C)C(=O)N2)OC(=O)[C@H](C(C)C)NC1=O [Romidepsin]
effect on relative HDR in the compound screen [2]: strongly inhibited HDR | IC50 (HEK293T-eGFP cells [3]): 16.4 nM

CC(=O)NCC(=O)N1[C@@H]2CC[C@H]1c1ccc(Nc3ncc(C(F)(F)F)c(NC4CCC4)n3)cc12 [PF-03814735]
IC50 (AURKA): […] | cell morphology by microscopy (Hepa 1–6-eGFP cells): did not change as drastically | comparative cytotoxicity of the aurora kinase inhibitors (Hepa 1–6-eGFP cells; Hepa 1–6-eGFP): clearly more drastic toxicity | dosage with overall high efficacy and manageable toxicity [1]: 0.2 µM | IC50 (AURKB): 0.5 nM

COc1cc(Nc2ncc3c(n2)-c2ccc(Cl)cc2C(c2c(F)cccc2OC)=NC3)ccc1C(=O)O [Alisertib]
loss of cell viability (HEK293T-eGFP cells [4]): 20% | cell morphology by microscopy (Hepa 1–6-eGFP cells): did not change as drastically | viability at 5 days, 0.3 µM [5]: 37% | toxicity at different incubation times (HEK293T cells; MTS, total incubation time varied (S5 Fig A)): did not vary significantly | cell viability by MTS (HEK293T cells; after 2 days): not affected | cell viability by MTS (HEK293T cells; after 5 days): dose-dependent decrease in cell viability | metabolic activity and confluency (HEK293T cells; seven days after treatment started, at least 0.3 µM): very low metabolic activity and confluency | IC50 ([6]; 48h after exposure): 32700 nM | IC50 ([6]; 120h after exposure (48h incubation)): 54800 nM | toxicity (order of) ([6]; primary murine hepatocytes, both timepoints): 30 to 50 µM | increase in preferential gene correction over gene knock-out ([2]; HEK293T, eGFP locus, sub-micromolar dosages): over 4 fold | lowest effective concentration for preferential HDR activation ([2]; HEK293T-eGFP cells, narrow dose range): 0.3 µM | preferential activation of HDR over NHEJ in hit validation [2]: strong dose-dependent preferential activation of HDR over NHEJ | effect on the NHEJ and HDR outcomes [2]: inhibited NHEJ and improved HDR | increase in preferential gene correction over gene knock-out ([1]; Hepa 1–6, eGFP locus, sub-micromolar dosages): over 4 fold | dosage with overall high efficacy and manageable toxicity [1]: 0.3 µM | IC50 (HEK293T-eGFP cells [3]; [8]): > 10000 nM | HDR at the PCSK9 locus [7]: measurable only when alisertib was present
